Reference: PMC11784013, “Potassium molybdate blocks APN-dependent coronavirus entry by degrading receptor via PIK3C3-mediated autophagy” (Journal of Virology, 2024)
Entries after “also recorded” stand apart in the source; their conditions may differ.

Assays:
TGEV Miller = test: TGEV infection of porcine intestinal organoids (monolayer, apical-out); format: cell-based, transmissible gastroenteritis virus; details: RT-qPCR, TCID50, western blot
Procedure: Fig 2 PM restricts TGEV and PRCV infection in porcine intestinal organoids. (A) Intestinal organoids cultured in 96-well plate were incubated with different concentrations of PM for 24 h, which was tested by Cell Counting Kit 8. (B and C) The intestinal organoids monolayer was treated with indicated PM and infected with TGEV Miller (0.1 MOI) for 24 h, which was measured by IFA (B), scale bar: 50 µm, RT-qPCR, TCID50, and western blot (C). (D) Apical-out intestinal organoids were treated with indicated PM and infected TGEV Miller (1 MOI) for 48 h, which was determined by RT-qPCR, TCID50, and western blot. (E and F) The intestinal organoids monolayer was treated with different concentrations of PM and infected with PRCV for 24 h, which was determined by IFA (E), scale bar: 50 µm, RT-qPCR, TCID50, and western blot (F). (G) Apical-out intestinal organoids were treated with indicated PM and infected PRCV (1 MOI) for 48 h, which was detected by RT-qPCR, TCID50, and western blot. Results are presented as mean ± SD of data from three independent experiments. **, P ≤ 0.01; ***, P ≤ 0.001.
Porcine 3D ileum organoids coated with Matrigel for 1 week were dissociated by incubation in 5 mM cold EDTA buffer on a rotating platform for 1 h at 4°C. […]

PRCV = PRCV entry assay in ST cells; format: cell-based, porcine respiratory coronavirus; details: PM 10 mM, PRCV 0.1 MOI, 1 or 2 h at 37°C, RT-qPCR and IFA
Procedure: Fig. S4. […] (A and B) Entry assay. ST cells were infected with 0.1
MOI PRCV for 1 h at 4 °C, and were then treated with PM (10 mΜ) or H2O for 1 h or 2 h at 37 °C. The cells samples were washed using sodium citrate buffer and detected by RT-qPCR (A) and IFA (B), Scale bar: 50 μm /5 μm. Results are presented as mean ± SD of data from three independent experiments ***, (also on this page, place not known: 0.0 0.5 1.0 1.5 Relative genomic RNA level *** *** DAPIPRCV PM H2O 1h 2h 1 2 3 4 5 H2O PM Viral load (log copies/ul) *** *** 1h 2h CollectedPM/H2O) […]

[K+].[K+].[O]=[Mo](=[O])([O-])[O-] [PM, potassium molybdate]
TGEV infection in intestinal organoid monolayer (TGEV Miller; TGEV Miller 0.1 MOI, 24 h, IFA, dose-dependent): significantly inhibited TGEV infection
TGEV infection in apical-out organoids (TGEV Miller; TGEV Miller 1 MOI, 48 h): markedly inhibited TGEV infection
PRCV entry (internalization) (PRCV): blocks PRCV internalization; also recorded: The same results were also demonstrated for PRCV infection
